Measured values published in PubChem BioAssay (NCI).
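Five concentrations, 48 hours, 96-well plates. TGI is the concentration that stops growth completely.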

What was measured:
Assay in all cases: NCI anticancer screen, dose series, 48 h
[1] = test system: SK-MEL-5 melanoma
[2] = test system: A498 renal
[3] = test system: TK-10 renal
[4] = test system: MOLT-4 leukemia
[5] = test system: RXF 393 renal
[6] = test system: HS 578T breast
[7] = test system: OVCAR-8 ovarian
[8] = test system: UACC-257 melanoma
[9] = test system: HT29 colon
[10] = test system: DU-145 prostate
[11] = test system: UACC-62 melanoma
[12] = test system: SNB-19 CNS
[13] = test system: HCT-15 colon
[14] = test system: ACHN renal
[15] = test system: T-47D breast
[16] = test system: U251 CNS
[17] = test system: UO-31 renal
[18] = test system: HCT-116 colon
[19] = test system: SF-268 CNS
[20] = test system: MDA-N
[21] = test system: BT-549 breast
[22] = test system: MDA-MB-231 breast
[23] = test system: HOP-92 NSCLC
[24] = test system: KM12 colon
[25] = test system: SW-620 colon
[26] = test system: MDA-MB-435
[27] = test system: IGROV1 ovarian
[28] = test system: RPMI-8226 leukemia
[29] = test system: 786-0 renal
[30] = test system: SK-OV-3 ovarian
[31] = test system: CCRF-CEM leukemia
[32] = test system: HL-60(TB) leukemia
[33] = test system: SNB-75 CNS
[34] = test system: CAKI-1 renal
[35] = test system: SN12C renal
[36] = test system: MCF7 breast
[37] = test system: EKVX NSCLC
[38] = test system: LOX IMVI melanoma
[39] = test system: SK-MEL-28 melanoma
[40] = test system: COLO 205 colon
[41] = test system: HOP-62 NSCLC
[42] = test system: OVCAR-3 ovarian
[43] = test system: OVCAR-4 ovarian
[44] = test system: K-562 leukemia
[45] = test system: SF-295 CNS
[46] = test system: HCC-2998 colon
[47] = test system: NCI-H226 lung
[48] = test system: NCI/ADR-RES ovarian
[49] = test system: NCI-H522 lung
[50] = test system: NCI-H23 lung
[51] = test system: M14 melanoma
[52] = test system: A549 NSCLC
[53] = test system: MALME-3M melanoma
[54] = test system: SR leukemia
[55] = test system: SK-MEL-2 melanoma
[56] = test system: PC-3 prostate
[57] = test system: SF-539 CNS
[58] = test system: OVCAR-5 ovarian
[59] = test system: NCI-H460 lung

## CNc1nncc2[nH]cnc12
[1]
  TGI: > 100 µM
[2]
  TGI: > 100 µM
[3]
  TGI: > 100 µM
[4]
  TGI: > 100 µM
[5]
  TGI: > 100 µM
[6]
  TGI: > 100 µM
[7]
  TGI: > 100 µM
[8]
  TGI: > 100 µM
[9]
  TGI: > 100 µM
[10]
  TGI: > 100 µM
[11]
  TGI: > 100 µM
[12]
  TGI: > 100 µM
[13]
  TGI: > 100 µM
[14]
  TGI: > 100 µM
[15]
  TGI: > 100 µM
[16]
  TGI: > 100 µM
[17]
  TGI: > 100 µM
[18]
  TGI: > 100 µM
[19]
  TGI: > 100 µM
[20]
  TGI: > 100 µM
[21]
  TGI: > 100 µM
[22]
  TGI: > 100 µM
[23]
  TGI: > 100 µM
[24]
  TGI: > 100 µM
[25]
  TGI: > 100 µM
[26]
  TGI: > 100 µM
[27]
  TGI: > 100 µM
[28]
  TGI: > 100 µM
[29]
  TGI: > 100 µM
[30]
  TGI: > 100 µM
[31]
  TGI: > 100 µM
[32]
  TGI: > 100 µM
[33]
  TGI: > 100 µM
[34]
  TGI: > 100 µM
[35]
  TGI: > 100 µM
[36]
  TGI: > 100 µM
[37]
  TGI: > 100 µM
[38]
  TGI: > 100 µM
[39]
  TGI: > 100 µM
[40]
  TGI: > 100 µM

## O=C1/C(=C/c2ccc(Cl)cc2)CCCc2ccccc21
[41]
  TGI: 57.7 µM
[42]
  TGI: 39.4 µM
[3]
  TGI: 58.7 µM
[43]
  TGI: 29.5 µM
[44]
  TGI: 12 µM
[4]
  TGI: 40 µM
[45]
  TGI: 31.5 µM
[6]
  TGI: 28.1 µM
[46]
  TGI: 36.7 µM
[47]
  TGI: 35.9 µM
[7]
  TGI: 32.7 µM
[8]
  TGI: 77.7 µM
[9]
  TGI: 19.7 µM
[48]
  TGI: 32.6 µM
[10]
  TGI: 59 µM
[11]
  TGI: 27.5 µM
[12]
  TGI: 43.6 µM
[13]
  TGI: 27.7 µM
[49]
  TGI: 26.5 µM
[14]
  TGI: 31.1 µM
[50]
  TGI: 60.5 µM
[16]
  TGI: 27.4 µM
[17]
  TGI: 35.4 µM
[18]
  TGI: 26.5 µM
[19]
  TGI: 30.9 µM
[20]
  TGI: 33.3 µM
[21]
  TGI: 47.3 µM
[22]
  TGI: 39.7 µM
[23]
  TGI: 57.3 µM
[24]
  TGI: 28.5 µM
[51]
  TGI: 28.9 µM
[25]
  TGI: 29 µM
[52]
  TGI: 60 µM
[53]
  TGI: 27.5 µM
[26]
  TGI: 36.1 µM
[54]
  TGI: 37 µM
[27]
  TGI: 43.3 µM
[28]
  TGI: 69 µM
[29]
  TGI: 32.4 µM
[55]
  TGI: 27.8 µM
[56]
  TGI: 53.1 µM
[30]
  TGI: 96.5 µM
[31]
  TGI: 32.5 µM
[57]
  TGI: 31.8 µM
[32]
  TGI: 33.5 µM
[33]
  TGI: > 100 µM
[34]
  TGI: > 100 µM
[35]
  TGI: 33.3 µM
[36]
  TGI: 65.8 µM
[37]
  TGI: 35.3 µM
[38]
  TGI: 31 µM
[39]
  TGI: 30.7 µM
[40]
  TGI: 34.9 µM
[58]
  TGI: 31.9 µM
[59]
  TGI: 32.2 µM
